Assay results published in patent US5658906A, “Cysteine protease and serine protease inhibitors” (Cephalon, Inc., priority 1996, dated 1997).

Columns and labels:
[1] = target: T1, Calpain I (Homo sapiens, UniProt P07384); experiment: Inhibition and rate of inactivation of calpain I (Succ-Leu-Tyr-MNA hydrolysis); format: biochemical; conditions: mean of three or more independent analyses, corrected for substrate, k2 = kapp(1+[S]/Km), read-out: k2 (second order rate constant of inactivation), A = Calpain I
T1 construct: Calpain I was purified from human red blood cells; from tissue; host or cells: human red blood cells (packed, outdated)
T1 sequence (P07384 1-714): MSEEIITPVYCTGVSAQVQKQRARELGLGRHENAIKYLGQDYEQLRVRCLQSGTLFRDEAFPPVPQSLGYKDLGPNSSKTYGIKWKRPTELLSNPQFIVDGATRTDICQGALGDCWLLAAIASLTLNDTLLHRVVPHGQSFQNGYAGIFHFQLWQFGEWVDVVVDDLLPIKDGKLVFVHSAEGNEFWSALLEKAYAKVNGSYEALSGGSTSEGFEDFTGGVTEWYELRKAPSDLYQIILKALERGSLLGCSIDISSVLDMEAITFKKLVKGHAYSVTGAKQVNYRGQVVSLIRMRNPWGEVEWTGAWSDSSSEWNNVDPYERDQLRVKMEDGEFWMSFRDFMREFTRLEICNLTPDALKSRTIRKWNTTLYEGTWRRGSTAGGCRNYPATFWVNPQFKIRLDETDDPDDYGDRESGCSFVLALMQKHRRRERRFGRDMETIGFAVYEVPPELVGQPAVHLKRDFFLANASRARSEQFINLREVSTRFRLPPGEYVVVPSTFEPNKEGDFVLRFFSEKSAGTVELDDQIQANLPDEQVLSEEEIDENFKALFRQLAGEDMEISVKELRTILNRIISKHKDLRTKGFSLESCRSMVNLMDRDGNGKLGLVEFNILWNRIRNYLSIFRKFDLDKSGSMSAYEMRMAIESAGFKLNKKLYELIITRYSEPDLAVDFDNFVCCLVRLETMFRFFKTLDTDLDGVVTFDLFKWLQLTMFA
T1 sequence (P04632 1-268 partner): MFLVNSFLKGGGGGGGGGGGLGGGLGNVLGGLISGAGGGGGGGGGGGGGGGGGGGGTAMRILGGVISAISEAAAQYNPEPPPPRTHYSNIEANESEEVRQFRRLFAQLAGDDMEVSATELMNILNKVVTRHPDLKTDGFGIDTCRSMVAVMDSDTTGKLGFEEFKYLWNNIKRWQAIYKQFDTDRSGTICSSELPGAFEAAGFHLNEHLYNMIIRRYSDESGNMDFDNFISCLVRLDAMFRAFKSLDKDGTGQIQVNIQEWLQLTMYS
Procedure: To evaluate inhibitory activity of our compounds, stocks (40 times concentrated) of each compound to be tested were prepared in 100% anhydrous dimethyl sulfoxide (DMSO) and 5 μl of each inhibitor preparation was aliquoted into each of three wells of a 96 well plate. Calpain I was purified from human red blood cells using a modification of the method described by Lee, W. J. et al. (Biochem. Internatl. (1990)22(1): 163-171). Briefly, 3 units of packed outdated red blood cells were washed 3× by repeated centrifugation at 500 rpm for 10 minutes through 900 mls of 0.9% NaCl. Cells were lysed in 20 mM Tris/1 mM EDTA/1 mM EGTA/5 mM mercaptoethanol (Buffer A) and centrifuged for 1 hour at 12,000 rpm in a GSA rotor using a Sorval centrifuge. The supernatant was collected and applied to a DEAE-sepharose FF column equilibrated in Buffer A+25 mM NaCl. After washing the column in Buffer A+25 mM NaCl, the bound protein was eluted at 117 ml/hr with a 25 mM to 150 mM NaCl linear gradient in Buffer A collecting 200, 10 mL fractions. Two μl of every fifth fraction was applied to nitrocelluose using a dot blot apparatus and calpain containing fractions identified by Western analysis. For detection of calpain, nitrocellulose sheets were first blocked in 5% Blotto (5% Carnation instant milk/10 mM Tris/[…]150 mM NaCl) for 30 minutes, followed by incubation for 1 hour in antibody directed against Calpain I (rabbit anti-human calpain I polyclonal sera, 1:1000 dilution in 5% Blotto). After three 5 minutes washes in 10 mM Tris/150 mM NaCl/0.05% Tween 20 the nitrocellulose was incubated for 1 hour in secondary alkaline phosphatase conjugated antibody (Biorad Cat#170-6518 1:2000 in 5% Blotto). After three 5 minutes washes in 10 mM Tris/150 mM NaCl/0.05% Tween 20 and 1 wash in 10 mM Tris/150 mM NaCl the nitrocellulose was incubated for up to 2 hours in a colorimetric substrate solution (Biorad Alkaline Phosphatase Substrate conjugate kit, cat#170-6432). The reaction was stopped by washing in water. After fractions containing calpain, and those in between, were pooled, solid ammonium sulfate was added to achieve a 30% solution and the mixture stirred for 1 hour at 4° C. Following collection of the precipitate by centrifugation for 1 hour at 4° C. at 12K rpm in a GSA rotor, the supernatant was collected and brought to 45% in ammonium sulfate. After stirring for 1 hour at 4° C., centrifugation was repeated. The supernatant was discarded and the precipitate resuspended in approximately 7 mls and dialyzed overnight at 4° C. against Buffer A+50 mM NaCl. The sample was then applied to a S300 gel filtration column preequilibrated in Buffer A+50 mM NaCl, washed and eluted at a flow rate of 20 ml/hr, collecting 200, 4 ml fractions. The peak of calpain was determined by assaying aliquots of every fifth fraction for enzyme activity monitored by the hydrolysis of a fluorogenic dipeptide substrate as described below. The peak fractions were pooled and the enzyme preparation used to test compounds for inhibitory activity. As an alternate to enzyme isolated from tissue sources, recombinant human calpain I has also been used to monitor compounds for inhibitory activity.
The foregoing enzyme preparation was diluted into assay buffer (i.e., 50 mM Tris, 50 mM NaCl, 1 mM EDTA, 1 mM EGTA, and 5 mM β-mercaptoethanol, pH 7.5 including 0.2 mM Succ-Leu-Tyr-MNA) and 175 μl aliquoted into the same wells containing the independent inhibitor stocks as well as to positive control wells containing 5 μl DMSO, but no compound. To start the reaction, 20 μl of 50 mM CaCl2 in assay buffer was added to all wells of the plate, excepting three, which were used as background signal baseline controls. Substrate hydrolysis was monitored every 5 minutes for a total of 30 minutes using Flouroskan II (ex=340 nm; em=430 nm). Substrate hydrolysis in the absence of inhibitor was linear for up to 15 minutes. […]

[2] = target: T2, α-chymotrypsin (Bos taurus, UniProt P00766); experiment: Inhibition of the serine protease α-chymotrypsin (Succ-Ala-Ala-Pro-Phe-AMC hydrolysis); format: biochemical; conditions: pH 7.5, 0.03 mM substrate
T2 construct: purchased Sigma Chem. Co. C-3142
Procedure: Additionally,because α-chymotrypsin is not a calcium sensitive enzyme and is constituitively active, following addition of inhibitor stocks to the 96 well plates, 100 ul of a 2 fold concentrated stock of enzyme in dilution buffer was first added and the reaction started by addition of 100 ul of a 2 fold concentrated stock of substrate in assay buffer. Substrate hydrolysis was monitored every 5 minutes up to 30 minutes using a Fluoroskan II ([…]).

[3] = test system: calpain I in Molt-4 cells (α-spectrin breakdown products); experiment: Inhibition of calpain activation in intact Molt-4 cells (calpain-generated spectrin breakdown products); format: cell-based; conditions: Homo sapiens, calcium and ionophore (ionomycin), read-out: % Inhibition of BDPs (10 μM)

`CC(C)C[C@H](NC(=O)OCc1ccccc1)C(=O)N[C@@H](Cc1ccccc1)C(=O)COn1cnc2ccccc21` [Example 22, 1-[N-[N-Benzyloxycarbonyl-L-leucyl]-(3S)-4-phenyl-3-amino-2-oxybutyloxy]benzimidazole] gave a kinact/KI [1] of 4000 M⁻¹ s⁻¹, an inhibition at 10 µM [2] of 91% and an inhibition at 10 µM [3] of 61%.
